This test concerns the target T1, Neutrophil elastase (Homo sapiens) (UniProt P08246).
T1 sequence (whole entry): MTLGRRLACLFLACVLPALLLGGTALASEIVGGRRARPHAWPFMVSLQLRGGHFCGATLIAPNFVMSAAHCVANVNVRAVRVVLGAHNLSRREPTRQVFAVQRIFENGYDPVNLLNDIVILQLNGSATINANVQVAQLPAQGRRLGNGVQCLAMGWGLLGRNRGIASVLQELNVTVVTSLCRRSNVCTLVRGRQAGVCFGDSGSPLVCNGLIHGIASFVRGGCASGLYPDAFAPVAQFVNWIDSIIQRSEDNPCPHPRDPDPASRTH
As to the kind of experiment: Bimolecular rate constant of the interaction of compound with Human Leukocyte Elastase was evaluated.

The structures appear in SMILES notation.

With `CCOC(=O)C(F)N1C(=O)c2ccccc2C1=O` (stereo unspecified), the K obs / 1 amounted to 40 M⁻¹ s⁻¹.
